Assay [1] has as its system BB49-HNC (Head and Neck Carcinoma). Kind of assay: Bliss excess, mean over the matrix (fraction); higher = more synergy. An outline of the steps:
(§1)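 Cell lines grown in DMEM/F12 or RPMI with 10% FBS were plated in 1536-well plates and held 24 hours at 37°C, 5% CO2 before 72 hours of exposure to two-drug dose matrices, with DMSO typically at 0.2%. CellTiter-Glo 2.0 luminescence gave viability, which was converted to inhibition. Vehicle wells were set to 0 and blank wells to 1. Combination Emax is the second-highest inhibition in the matrix, and Bliss excess is the observed combination effect minus the expected EA + EB − EA·EB, where EA and EB are the single-agent effects.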

The test system of assay [2] is NB(TU)1-10 (Neuroblastoma). The description is as above. The procedure, abridged: as §1
Assay [3] relates to NCI-H211 (Small Cell Lung Carcinoma). Described as above. An outline of the steps:
as §1

In assay [4] the test system is SK-N-FI (Neuroblastoma). The description is as above. An outline of the steps: as §1
Assay [5] has as its system U-266 (Plasma Cell Myeloma). Described as above. The procedure, abridged:
as §1

For assay [6], the system named is BB49-HNC (Head and Neck Carcinoma). Kind of assay: combination Emax (second highest fraction inhibited in the dose matrix, 72 h); higher = more inhibition; extreme values may be limits of the assay. The procedure, abridged: as §1
In assay [7] the test system is NB(TU)1-10 (Neuroblastoma). The assay is described as above. An outline of the steps:
as §1

For assay [8], the system named is NCI-H211 (Small Cell Lung Carcinoma). Described as above. An outline of the steps: as §1
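Wherever Bliss excess, mean over the matrix is given: after 72 h of two-drug dosing.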

Turning to `CN(C)CCCOc1ccc(-c2ccc3ncc4c(c3c2)n(C2CCOCC2)c(=O)n4C)cn1` [AZD0156] + O=C(c1cc(Cc2n[nH]c(=O)c3ccccc23)ccc1F)N1CCN(C(=O)C2CC2)CC1 [Olaparib] (first compound max 3 µM, partner max 3 µM), the Bliss excess in assay [1] was 0.165; in assay [2] it was -0.037; in assay [3], 0.0397; in assay [4] it was -0.0123; in assay [5], -0.106. Further, the “combination Emax” value in assay [6] amounted to 0.598; in assay [7], 0.356; in assay [8], 0.598.
As for `C[C@@H]1COCCN1c1cc(C2([S@](C)(=N)=O)CC2)nc(-c2ccnc3[nH]ccc23)n1` [AZD6738] + O=C(c1cc(Cc2n[nH]c(=O)c3ccccc23)ccc1F)N1CCN(C(=O)C2CC2)CC1 [Olaparib] (first compound max 10 µM, 7x7, partner max 10 µM), the Bliss excess is 0.0254 in assay [2], -0.0581 in assay [4] and 0.0151 in assay [5]. Besides, the “combination Emax” value in assay [7] was found to be 0.751.
Taken in the same sequence, the figures for `Cc1cc2ncnn2cc1Nc1ncc2c(n1)n(C1CCOCC1)c(=O)n2C` [AZD7648] + CCN(CCO)CCCOc1ccc2c(Nc3cc(CC(=O)Nc4cccc(F)c4)[nH]n3)ncnc2c1 [AZD2811] (first compound max 10 µM, 7x7, partner max 1 µM) were -0.0403, 0.0094, 0.0204 and 0.297.
The matching figures for `CN(C)CCCOc1ccc(-c2ccc3ncc4c(c3c2)n(C2CCOCC2)c(=O)n4C)cn1` [AZD0156] + CCN(CCO)CCCOc1ccc2c(Nc3cc(CC(=O)Nc4cccc(F)c4)[nH]n3)ncnc2c1 [AZD2811] (first compound max 1 µM, 7x7, partner max 1 µM): -0.0294, -0.0144, 0.0028 and 0.292.
Taken in the same sequence, the figures for `CCc1c2c(nc3ccc(O)cc13)-c1cc3c(c(=O)n1C2)COC(=O)[C@]3(O)CC` [SN-38] + O=C(c1cc(Cc2n[nH]c(=O)c3ccccc23)ccc1F)N1CCN(C(=O)C2CC2)CC1 [Olaparib] (first compound max 0.3 µM, 7x7, partner max 10 µM) were 0.0289, 0.0478, 0.0526 and 0.805.
As for `Cc1cc2ncnn2cc1Nc1ncc2c(n1)n(C1CCOCC1)c(=O)n2C` [AZD7648] + O=C(c1cc(Cc2n[nH]c(=O)c3ccccc23)ccc1F)N1CCN(C(=O)C2CC2)CC1 [Olaparib] (first compound max 10 µM, 7x7, partner max 10 µM), the Bliss excess in assay [2] is -0.0408; in assay [4], -0.0292; in assay [5] it was -0.0247. The “combination Emax” value in assay [7] came out at 0.263.
As for `Cc1cc2ncnn2cc1Nc1ncc2c(n1)n(C1CCOCC1)c(=O)n2C` [AZD7648] + C=CCn1c(=O)c2cnc(Nc3ccc(N4CCN(C)CC4)cc3)nc2n1-c1cccc(C(C)(C)O)n1 [AZD1775] (first compound max 10 µM, partner max 1 µM), the Bliss excess in assay [2] was -0.062; in assay [4], -0.0415; in assay [5], -0.0457. For the same molecule, the “combination Emax” value in assay [7] came out at 0.824.
The matching figures for `CCc1c2c(nc3ccc(O)cc13)-c1cc3c(c(=O)n1C2)COC(=O)[C@]3(O)CC` [SN-38] + CN(C)CCCOc1ccc(-c2ccc3ncc4c(c3c2)n(C2CCOCC2)c(=O)n4C)cn1 [AZD0156] (first compound max 0.3 µM, 7x7, partner max 1 µM): -0.0787, 0.0628, -0.0099 and 0.805.
Taken in the same sequence, the figures for `COc1cccc(OCCCN)c1-c1cc(Nc2cnc(C#N)cn2)n[nH]1` [Prexasertib] + O=C(c1cc(Cc2n[nH]c(=O)c3ccccc23)ccc1F)N1CCN(C(=O)C2CC2)CC1 [Olaparib] (first compound max 1 µM, 7x7, partner max 10 µM) were -0.0874, -0.0683, -0.0895 and 0.885.
Taken in the same sequence, the figures for `COc1cccc(OCCCN)c1-c1cc(Nc2cnc(C#N)cn2)n[nH]1` [Prexasertib] + CN(C)CCCOc1ccc(-c2ccc3ncc4c(c3c2)n(C2CCOCC2)c(=O)n4C)cn1 [AZD0156] (first compound max 1 µM, 7x7, partner max 1 µM) were -0.0519, -0.0168, -0.032 and 0.934.
Consider `COc1cccc(OCCCN)c1-c1cc(Nc2cnc(C#N)cn2)n[nH]1` [Prexasertib] + C[C@@H]1COCCN1C2=NC(=NC(=C2)C3(CC3)[S@](=N)(=O)C)C4=C5C=CNC5=NC=C4 [AZD6738] (first compound max 1 µM, 7x7, partner max 10 µM), for which the Bliss excess in assay [2] was -0.141; in assay [4], 0.0336; in assay [5], -0.0859. Also, in assay [7], the “combination Emax” value was 0.94.
The matching figures for `COc1cc2c(cc1OCCCCCOc1cc3c(cc1OC)C(=O)N1C=C(C)C[C@H]1C=N3)N=C[C@@H]1CC(C)=CN1C2=O` [SG3199] + O=C(c1cc(Cc2n[nH]c(=O)c3ccccc23)ccc1F)N1CCN(C(=O)C2CC2)CC1 [Olaparib] (first compound max 0.001 µM, 7x7, partner max 10 µM): -0.0149, -0.0296, -0.0601 and 0.187.
For the molecule `CCN(CCO)CCCOc1ccc2c(Nc3cc(CC(=O)Nc4cccc(F)c4)[nH]n3)ncnc2c1` [AZD2811] + C[C@@H]1COCCN1C2=NC(=NC(=C2)C3(CC3)[S@](=N)(=O)C)C4=C5C=CNC5=NC=C4 [AZD6738] (first compound max 1 µM, 7x7, partner max 10 µM), the Bliss excess in assay [2] was -0.063; in assay [4], -0.0625; in assay [5], -0.0532. Moreover, the “combination Emax” value in assay [7] was 0.756.
Taken in the same sequence, the figures for `COc1cccc(OCCCN)c1-c1cc(Nc2cnc(C#N)cn2)n[nH]1` [Prexasertib] + C=CCn1c(=O)c2cnc(Nc3ccc(N4CCN(C)CC4)cc3)nc2n1-c1cccc(C(C)(C)O)n1 [AZD1775] (first compound max 1 µM, partner max 1 µM) were -0.0039, 0.0466, -0.0454 and 0.965.
Taken in the same sequence, the figures for `COc1cccc2c1C(=O)c1c(O)c3c(c(O)c1C2=O)C[C@@](O)(C(=O)CO)C[C@@H]3O[C@H]1C[C@H](N)[C@H](O)[C@H](C)O1` [Doxorubicin] + Cc1cc2ncnn2cc1Nc1ncc2c(n1)n(C1CCOCC1)c(=O)n2C [AZD7648] (first compound max 1 µM, 7x7, partner max 10 µM) were 0.0954, -0.0158, 0.115 and 0.793.
Taken in the same sequence, the figures for `CCN(CCO)CCCOc1ccc2c(Nc3cc(CC(=O)Nc4cccc(F)c4)[nH]n3)ncnc2c1` [AZD2811] + O=C(c1cc(Cc2n[nH]c(=O)c3ccccc23)ccc1F)N1CCN(C(=O)C2CC2)CC1 [Olaparib] (first compound max 1 µM, 7x7, partner max 10 µM) were 0.0344, -0.0001, -0.0139 and 0.257.
Take `COc1cccc(OCCCN)c1-c1cc(Nc2cnc(C#N)cn2)n[nH]1` [Prexasertib] + Cc1cc2ncnn2cc1Nc1ncc2c(n1)n(C1CCOCC1)c(=O)n2C [AZD7648] (first compound max 1 µM, 7x7, partner max 10 µM): the values for the Bliss excess in assay [2], in assay [4] and in assay [5] were -0.0498, -0.0084 and -0.0518, respectively. Further, in assay [7], the “combination Emax” value turned out to be 0.94.
Consider `C=CCn1c(=O)c2cnc(Nc3ccc(N4CCN(C)CC4)cc3)nc2n1-c1cccc(C(C)(C)O)n1` [AZD1775] + O=C(c1cc(Cc2n[nH]c(=O)c3ccccc23)ccc1F)N1CCN(C(=O)C2CC2)CC1 [Olaparib] (first compound max 1 µM, partner max 10 µM), for which the Bliss excess is 0.0461 in assay [2], -0.0569 in assay [4] and -0.0775 in assay [5]. For the same molecule, the “combination Emax” value in assay [7] worked out at 0.815.
For `CN(C)CCCOc1ccc(-c2ccc3ncc4c(c3c2)n(C2CCOCC2)c(=O)n4C)cn1` [AZD0156] + C=CCn1c(=O)c2cnc(Nc3ccc(N4CCN(C)CC4)cc3)nc2n1-c1cccc(C(C)(C)O)n1 [AZD1775] (first compound max 1 µM, partner max 1 µM), the Bliss excess is 0.014 in assay [2], -0.0308 in assay [4] and 0.0168 in assay [5]. Also, the “combination Emax” value in assay [7] turned out to be 0.857.
Regarding `CCN(CCO)CCCOc1ccc2c(Nc3cc(CC(=O)Nc4cccc(F)c4)[nH]n3)ncnc2c1` [AZD2811] + C=CCn1c(=O)c2cnc(Nc3ccc(N4CCN(C)CC4)cc3)nc2n1-c1cccc(C(C)(C)O)n1 [AZD1775] (first compound max 1 µM, partner max 1 µM), the Bliss excess in assay [2] is 0.0337; in assay [4], -0.0452; in assay [5], 0.0031. In assay [7], the “combination Emax” value is 0.881.
Taken in the same sequence, the figures for `COc1cccc(OCCCN)c1-c1cc(Nc2cnc(C#N)cn2)n[nH]1` [Prexasertib] + CCc1c2c(nc3ccc(O)cc13)-c1cc3c(c(=O)n1C2)COC(=O)[C@]3(O)CC [SN-38] (first compound max 1 µM, 7x7, partner max 0.3 µM) were -0.0763, 0.0093, -0.0412 and 0.922.
The matching figures for `Cc1cc2ncnn2cc1Nc1ncc2c(n1)n(C1CCOCC1)c(=O)n2C` [AZD7648] + CN(C)CCCOc1ccc(-c2ccc3ncc4c(c3c2)n(C2CCOCC2)c(=O)n4C)cn1 [AZD0156] (first compound max 10 µM, 7x7, partner max 1 µM): 0.0361, 0.0029, 0.018 and 0.322.
As for `NC1(C(=O)N[C@@H](CCO)c2ccc(Cl)cc2)CCN(c2ncnc3[nH]ccc23)CC1` [Capivasertib] + CC(=O)c1c(C)c2cnc(Nc3ccc(N4CCNCC4)cn3)nc2n(C2CCCC2)c1=O [Palbociclib] (first compound max 10 µM, 7x7, partner max 10 µM), the Bliss excess is 0.0926 in assay [3], -0.0581 in assay [4] and -0.0606 in assay [5]. Also, the “combination Emax” value in assay [8] was determined as 0.59.
Regarding `C=CCn1c(=O)c2cnc(Nc3ccc(N4CCN(C)CC4)cc3)nc2n1-c1cccc(C(C)(C)O)n1` [AZD1775] + C[C@@H]1COCCN1C2=NC(=NC(=C2)C3(CC3)[S@](=N)(=O)C)C4=C5C=CNC5=NC=C4 [AZD6738] (first compound max 1 µM, partner max 10 µM), the Bliss excess was 0.0985 in assay [2], -0.0346 in assay [4] and 0.0235 in assay [5]. Further, in assay [7], the “combination Emax” value came to 0.875.
Turning to `COc1nnc2ccc(N3CCC(c4ccc(OCCN5CCN(C)C(=O)[C@H]5C)cc4)CC3)nn12` [AZD5153] + C=CCn1c(=O)c2cnc(Nc3ccc(N4CCN(C)CC4)cc3)nc2n1-c1cccc(C(C)(C)O)n1 [AZD1775] (first compound max 1 µM, partner max 1 µM), the values for the Bliss excess in assay [3], in assay [4] and in assay [5] were -0.0008, -0.105 and -0.0922, respectively. Moreover, in assay [8], the “combination Emax” value was 0.993.
Regarding `Cc1cc2ncnn2cc1Nc1ncc2c(n1)n(C1CCOCC1)c(=O)n2C` [AZD7648] + C[C@@H]1COCCN1C2=NC(=NC(=C2)C3(CC3)[S@](=N)(=O)C)C4=C5C=CNC5=NC=C4 [AZD6738] (first compound max 10 µM, 7x7, partner max 10 µM), the Bliss excess in assay [2] is -0.0214; in assay [4], -0.005; in assay [5], -0.0168. Also, the “combination Emax” value in assay [7] came to 0.713.
Taken in the same sequence, the figures for `CN(C)CCCOc1ccc(-c2ccc3ncc4c(c3c2)n(C2CCOCC2)c(=O)n4C)cn1` [AZD0156] + C[C@@H]1COCCN1C2=NC(=NC(=C2)C3(CC3)[S@](=N)(=O)C)C4=C5C=CNC5=NC=C4 [AZD6738] (first compound max 1 µM, 7x7, partner max 10 µM) were -0.0026, 0.0055, -0.117 and 0.798.

These data come from the supplement of paper PMC11061612.
